Earlier results as cited in paper PMC4387274, “A phase 1 dose escalation study of BI 831266, an inhibitor of Aurora kinase B, in patients with advanced solid tumors” (Investigational New Drugs, 2014).

Legend:
acute myeloid leukemia = test system: acute myeloid leukemia; parameters: method as in PMID 23605952; conditions: compared with low-dose cytosine arabinoside control arm
[1] = 121 patients with solid malignancies

For CC(C)NC(=O)[C@H]1CCC[C@H]1Nc1nc(Nc2ccc(C(=O)N(C)C3CCN(C)CC3)cc2)ncc1C(F)(F)F [BI 811283], the “Safety in ongoing phase 1 study” value (solid malignancies; 105 mg in Schedule A) is listed as “no significant safety issues”, the Objective responses (solid malignancies; [1]) is listed as “no objective responses” and the “Patients achieving SD” value (solid malignancies; [1]) is listed as “a third of the patients”.

In the case of CCN(CCCOc1ccc2c(Nc3cc(CC(=O)Nc4cccc(F)c4)n[nH]3)ncnc2c1)CCOP(=O)(O)O [barasertib], the “Objective clinical response rate” value (acute myeloid leukemia) is given as “superior objective clinical response rate”.
